Several values for one entry are separate records, joined by “and”; a condition that tells them apart may be missing. Equal entries are not always repeated.
Target: T1, 5-Lipoxygenase (5-LOX) (Homo sapiens, UniProt P09917)
T1 construct: Human peripheral blood mononuclear leukocytes (PBML) were isolated through a Ficoll-Paque density gradient; endogenous in cells; host or cells: human peripheral blood mononuclear leukocytes (PBML)
T1 sequence (P09917 1-674): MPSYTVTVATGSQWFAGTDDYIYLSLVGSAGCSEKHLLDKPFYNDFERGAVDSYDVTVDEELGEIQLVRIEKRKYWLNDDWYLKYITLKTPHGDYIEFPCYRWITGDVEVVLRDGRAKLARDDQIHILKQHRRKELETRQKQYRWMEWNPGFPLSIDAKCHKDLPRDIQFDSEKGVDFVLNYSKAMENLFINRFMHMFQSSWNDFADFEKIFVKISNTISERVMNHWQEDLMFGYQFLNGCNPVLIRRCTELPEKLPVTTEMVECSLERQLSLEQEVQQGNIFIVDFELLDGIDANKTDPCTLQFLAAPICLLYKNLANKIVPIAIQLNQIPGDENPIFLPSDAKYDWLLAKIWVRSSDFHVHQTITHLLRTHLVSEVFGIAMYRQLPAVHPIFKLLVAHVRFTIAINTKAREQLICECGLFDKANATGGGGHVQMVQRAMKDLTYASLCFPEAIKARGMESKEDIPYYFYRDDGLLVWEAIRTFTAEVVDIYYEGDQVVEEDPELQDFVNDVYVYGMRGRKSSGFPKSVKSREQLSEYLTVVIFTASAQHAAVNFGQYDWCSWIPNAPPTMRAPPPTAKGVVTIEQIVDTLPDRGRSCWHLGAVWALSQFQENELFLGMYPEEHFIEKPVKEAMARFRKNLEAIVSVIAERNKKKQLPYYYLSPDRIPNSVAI
Assay: 5-Lipoxygenase inhibition assay, LTB4 by EIA in A23187-stimulated human PBML
Assay type: cell-based
Conditions: for Avg. % Inh.: average of duplicates; for % Inh. / Product (pg/well): single replicate
Text: Methods employed in this example were adapted from the scientific literature to maximize reliability and reproducibility. […] 110-13 (2000).
In this study, the 5-LOX source was human peripheral blood mononuclear cells (PBMNC) and the substrate was arachidonic acid having a general reaction of: arachidonic acid →5-LOX→5-HPETE→LTB4. Human peripheral blood mononuclear leukocytes (PBML) were isolated through a Ficoll-Paque density gradient. The inhibiting agent was processed Morinda citrifolia puree juice concentrate. Morinda citrifolia was pre-incubated with PBML (5×10^6 cell/ml) in HBSS buffer pH 7.4 at 37° C. for 15 minutes. […] Following neutralization with NaOH and centrifugation, the supernatant LTB4 is measured using an EIA kit.
The supernatant sample was utilized in same assay and protocols as outlined in Example One above, wherein the brown substance obtained was substituted for Morinda citrifolia puree juice.

Question: With `CC(Cc1ccc(O)c(O)c1)C(C)Cc1ccc(O)c(O)c1` (stereo not drawn) [NDGA, nordihydroguaretic acid] as the compound, how does the “Avg. % Inh.” value (Conc. 0.03 uM) read?
Answer: 6%

Question: What about the “% Inh.” value (Conc. 0.03 uM) of the same compound?
Answer: 3.6% and 9.2%

Question: What about the “Product (pg/well)” value (Conc. 0.03 uM) of the same compound?
Answer: 3608.3 pg/well and 3403.4 pg/well

Question: What about the “Avg. % Inh.” value (Conc. 0.1 uM) of the same compound?
Answer: 36%

Question: And the “% Inh.” value (Conc. 0.1 uM)?
Answer: 36.1%

Question: And the “Product (pg/well)” value (Conc. 0.1 uM)?
Answer: 2433.3 pg/well

Question: What about the “Avg. % Inh.” value (Conc. 0.3 uM) of the same compound?
Answer: 73%

Question: And the “% Inh.” value (Conc. 0.3 uM)?
Answer: 73.5% and 72.8%

Question: What about the “Product (pg/well)” value (Conc. 0.3 uM) of the same compound?
Answer: 1083.1 pg/well and 1106.1 pg/well

Question: What about the “Avg. % Inh.” value (Conc. 1 uM) of the same compound?
Answer: 97%

Question: What about the “% Inh.” value (Conc. 1 uM) of the same compound?
Answer: 97.0% and 97.4%

Question: And the “Product (pg/well)” value (Conc. 1 uM)?
Answer: 233.7 pg/well and 217.9 pg/well

Question: What about the “Avg. % Inh.” value (Conc. 3 uM) of the same compound?
Answer: 100%

Question: What about the “% Inh.” value (Conc. 3 uM) of the same compound?
Answer: 99.7% and 100.8%

Question: What about the “Product (pg/well)” value (Conc. 3 uM) of the same compound?
Answer: 134.9 pg/well and 94.3 pg/well

Reference: patent US20070281903A1, “Morinda Citrifolia-Based Formulation 5-LOX And 15-LOX” (priority 2006, published 2007)
